What was measured:
[1] = target: T1, TcaR (Staphylococcus epidermidis, UniProt Q5HLN6); test: EMSA, inhibition of TcaR-GC33 ssDNA complex; assay type: binding; details: 1 uM GC33 ssDNA, 2 uM TcaR dimer, 2 or 20 uM antibiotic, pH 8.0, room temperature
T1 construct: homodimer

[2] = target: T1, TcaR; test: EMSA, inhibition of TcaR-GC33 ssDNA complex; also SPR; assay type: binding; details: 1 uM GC33 ssDNA, 2 uM TcaR dimer, 2 or 20 uM antibiotic, pH 8.0, room temperature; SPR: 64 nM TcaR, 640 nM antibiotic, pH 7.5, 25 °C

| Compound | EMSA, inhibition of TcaR-GC33 ssDNA complex [1] | EMSA, inhibition of TcaR-GC33 ssDNA complex; also SPR [2] |
| --- | --- | --- |
| O=C(N[C@H](CO)[C@H](O)c1ccc([N+](=O)[O-])cc1)C(Cl)Cl [chloramphenicol] | kanamycin, chloramphenicol and gentamycin interfered with the ssDNA (GC33) binding activity of TcaR | – |
| NC[C@H]1O[C@H](O[C@H]2[C@H](O)[C@@H](O[C@H]3O[C@H](CO)[C@@H](O)[C@H](N)[C@H]3O)[C@H](N)C[C@@H]2N)[C@H](O)[C@@H](O)[C@@H]1O [kanamycin] | – | kanamycin, chloramphenicol and gentamycin interfered with the ssDNA (GC33) binding activity of TcaR |

— publication PMC3448645, “Functional Studies of ssDNA Binding Ability of MarR Family Protein TcaR from Staphylococcus epidermidis” (PLoS ONE, 2012)
